Target: T1, hFXR (Homo sapiens, UniProt Q96RI1)
T1 construct: expressed in transfected cells; host or cells: CV-1 cells
T1 sequence (Q96RI1 1-486): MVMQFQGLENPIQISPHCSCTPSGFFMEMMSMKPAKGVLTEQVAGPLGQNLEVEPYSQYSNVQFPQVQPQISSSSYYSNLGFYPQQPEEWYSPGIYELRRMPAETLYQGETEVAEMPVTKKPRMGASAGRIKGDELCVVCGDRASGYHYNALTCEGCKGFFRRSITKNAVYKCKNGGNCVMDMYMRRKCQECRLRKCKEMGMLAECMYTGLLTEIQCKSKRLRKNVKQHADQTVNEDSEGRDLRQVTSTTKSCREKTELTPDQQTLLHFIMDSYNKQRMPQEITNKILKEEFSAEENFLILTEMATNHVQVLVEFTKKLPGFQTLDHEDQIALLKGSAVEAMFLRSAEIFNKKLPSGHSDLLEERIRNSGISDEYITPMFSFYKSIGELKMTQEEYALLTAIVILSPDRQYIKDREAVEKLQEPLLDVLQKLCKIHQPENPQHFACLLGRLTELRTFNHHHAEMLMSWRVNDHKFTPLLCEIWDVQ
T1 sequence (P19793 1-462 partner): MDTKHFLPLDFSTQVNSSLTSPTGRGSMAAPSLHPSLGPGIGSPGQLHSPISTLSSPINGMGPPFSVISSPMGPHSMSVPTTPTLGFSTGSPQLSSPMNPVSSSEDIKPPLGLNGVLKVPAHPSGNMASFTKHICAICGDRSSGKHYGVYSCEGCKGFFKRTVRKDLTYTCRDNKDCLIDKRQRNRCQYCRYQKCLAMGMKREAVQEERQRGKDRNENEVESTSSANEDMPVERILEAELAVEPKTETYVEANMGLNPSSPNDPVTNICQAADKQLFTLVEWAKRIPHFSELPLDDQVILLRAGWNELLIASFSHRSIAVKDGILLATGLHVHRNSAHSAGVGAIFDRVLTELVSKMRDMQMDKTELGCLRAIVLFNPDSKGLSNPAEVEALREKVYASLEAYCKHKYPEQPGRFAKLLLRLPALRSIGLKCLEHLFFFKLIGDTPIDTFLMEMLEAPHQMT
Experiment: In Vitro FXR Assay (TK): TK-ECRE-luc reporter in transfected CV-1 cells
Format: cell-based
Conditions: 18 hrs, luminescence, maximum efficacy of <25% of the Fexarmine control classified as '+'
Description: CV-1 cells were seeded at a density of 2,000,000 cells in a T175 flask with DMEM+10% charcoal double-stripped FBS and incubated at 37° C. in 5% CO2 for 18 h (O/N).
After 18 h of incubation, the medium in the T175 flask was changed with fresh DMEM+10% charcoal super-stripped serum. In a polypropylene tube, 2500 μL OptiMEM (Life Technologies, Cat #31985-062) was combined with expression plasmids for hFXR, hRXR, TK-ECRE-luc and pCMX-YFP. The tube was then briefly vortexed and incubated at room temperature for 5 minutes. Transfection reagent (X-tremeGENE HP from Roche, Cat #06 366 236 001) was added to the OptiMEM/plasmid mixture vortexed and incubated at room temperature for 20 minutes. Following incubation, the transfection reagent/DNA mixture complex was added to cells in the T175 flask and the cells were incubated at 37° C. in 5% CO2 for 18 h (O/N).
Compounds were serially diluted in DMSO and added to transfected CV-1 cells. The cells were then incubated for 18 hrs. The next day cells were lysed and examined for luminescence.

Row | SMILES | EC50
1 | COc1ccc([C@H]2CC[C@H](CN(c3cccc(-c4cnn(C5CC5)c4)c3)C(=O)[C@H]3CC[C@H](OC(=O)NCCCN(C)C)CC3)CC2)cc1C [Compound 4.11, trans-4-((3-(1-Cyclopropyl-1H-pyrazol-4-yl)phenyl)((trans-4-(4-methoxy-3-methylphenyl)cyclohexyl)methyl)carbamoyl)cyclohexyl (3-(dimethylamino)propyl)carbamate] | ≤ 250 nM
2 | CN(C)c1ccc(C23CCC(CN(c4cccc(-c5cnn(C6CC6)c5)c4)C(=O)[C@H]4CC[C@H](OC(=O)NCCO)CC4)(CC2)CC3)cn1 [Compound 4.12, 4-((3-(1-Cyclopropyl-1H-pyrazol-4-yl)phenyl)((4-(6-(dimethylamino)pyridin-3-yl)bicyclo[2.2.2]octan-1-yl)methyl)carbamoyl)cyclohexyl (2-hydroxyethyl)trans-carbamate] | ≤ 250 nM
3 | COc1ccc([C@H]2CC[C@H](CN(c3cccc(-c4cnn(C5CC5)c4)c3)C(=O)[C@H]3CC[C@H](OC(=O)NCc4ncc[nH]4)CC3)CC2)cc1C [Compound 4.13, trans-4-((3-(1-Cyclopropyl-1H-pyrazol-4-yl)phenyl)((trans-4-(4-methoxy-3-methylphenyl)cyclohexyl)methyl)carbamoyl)cyclohexyl ((1H-imidazol-2-yl)methyl)carbamate] | ≤ 250 nM
4 | COc1ccc([C@H]2CC[C@H](CN(c3cccc(-c4cnn(C5CC5)c4)c3)C(=O)[C@H]3CC[C@H](OC(=O)NCCN(C)C(=O)OC(C)(C)C)CC3)CC2)cc1C [Compound 4.14, tert-Butyl (2-((((trans-4-((3-(1-cyclopropyl-1H-pyrazol-4-yl)phenyl)((trans-4-(4-methoxy-3-methylphenyl)cyclohexyl)methyl)carbamoyl)cyclohexyl)oxy)carbonyl)amino)ethyl)(methyl)carbamate] | ≤ 250 nM
5 | COc1ccc([C@H]2CC[C@H](CN(c3cccc(-c4cnn(C5CC5)c4)c3)C(=O)[C@H]3CC[C@H](OC(=O)NCc4c[nH]cn4)CC3)CC2)cc1C [Compound 4.15, trans-4-((3-(1-Cyclopropyl-1H-pyrazol-4-yl)phenyl)((trans-4-(4-methoxy-3-methylphenyl)cyclohexyl)methyl)carbamoyl)cyclohexyl ((1H-imidazol-4-yl)methyl)carbamate] | ≤ 250 nM
6 | COc1ccc([C@H]2CC[C@H](CN(c3cccc(-c4cnn(C5CC5)c4)c3)C(=O)[C@H]3CC[C@H](OC(=O)NCCN)CC3)CC2)cc1C [Compound 4.16, trans-4-((3-(1-Cyclopropyl-1H-pyrazol-4-yl)phenyl)((trans-4-(4-methoxy-3-methylphenyl)cyclohexyl)methyl)carbamoyl)cyclohexyl (2-aminoethyl)carbamate] | ≤ 250 nM
7 | COc1ccc([C@H]2CC[C@H](CN(c3cccc(-c4cnn(C5CC5)c4)c3)C(=O)[C@H]3CC[C@H](OC(=O)NC4CN(C(=O)OC(C)(C)C)C4)CC3)CC2)cc1C [Compound 4.17, tert-Butyl 3-((((trans-4-((3-(1-cyclopropyl-1H-pyrazol-4-yl)phenyl)((trans-4-(4-methoxy-3-methylphenyl)cyclohexyl)methyl)carbamoyl)cyclohexyl)oxy)carbonyl)amino)azetidine-1-carboxylate] | ≤ 250 nM
8 | COc1ccc([C@H]2CC[C@H](CN(c3cccc(-c4cnn(C5CC5)c4)c3)C(=O)[C@H]3CC[C@H](OC(=O)NC4CNC4)CC3)CC2)cc1C [Compound 4.18, trans-4-((3-(1-Cyclopropyl-1H-pyrazol-4-yl)phenyl)((trans-4-(4-methoxy-3-methylphenyl)cyclohexyl)methyl)carbamoyl)cyclohexyl azetidin-3-ylcarbamate] | ≤ 250 nM
9 | COc1ccc([C@H]2CC[C@H](CN(c3cc(-c4cnn(C5CC5)c4)ccn3)C(=O)[C@H]3CC[C@H](OC(=O)NCCO)CC3)CC2)cc1C [Compound 4.19, trans-4-((4-(1-Cyclopropyl-1H-pyrazol-4-yl)pyridin-2-yl)((trans-4-(4-methoxy-3-methylphenyl)cyclohexyl)methyl)carbamoyl)cyclohexyl (2-hydroxyethyl)carbamate] | ≤ 250 nM
10 | COc1ccc([C@H]2CC[C@H](CN(c3cccc(-c4cnn(C5CC5)c4)c3)C(=O)[C@H]3CC[C@H](OC(=O)NCCCCN(C)C)CC3)CC2)cc1C [Compound 4.20, trans-4-((3-(1-Cyclopropyl-1H-pyrazol-4-yl)phenyl)((trans-4-(4-methoxy-3-methylphenyl)cyclohexyl)methyl)carbamoyl)cyclohexyl (4-(dimethylamino)butyl)carbamate] | ≤ 250 nM
11 | COc1ccc([C@H]2CC[C@H](CN(c3cccc(-c4cnn(C5CC5)c4)c3)C(=O)[C@H]3CC[C@H](OC(=O)NCCCCCN(C)C)CC3)CC2)cc1C [Compound 4.21, trans-4-((3-(1-Cyclopropyl-1H-pyrazol-4-yl)phenyl)((trans-4-(4-methoxy-3-methylphenyl)cyclohexyl)methyl)carbamoyl)cyclohexyl (5-(dimethylamino)pentyl)carbamate] | ≤ 250 nM
12 | CN(C)c1ccc([C@H]2CC[C@H](CN(c3cccc(-c4coc(C5CC5)n4)c3)C(=O)[C@H]3CC[C@H](OC(=O)NCCO)CC3)CC2)cn1 [Compound 4.22, trans-4-((3-(2-Cyclopropyloxazol-4-yl)phenyl)((trans-4-(6-(dimethylamino)pyridine-3-yl)cyclohexyl)methyl)carbamoyl)cyclohexyl (2-hydroxyethyl)carbamate] | ≤ 250 nM
13 | CN(C)c1ccc(C23CCC(CN(c4cccc(-c5coc(C6CC6)n5)c4)C(=O)[C@H]4CC[C@H](OC(=O)NCCO)CC4)(CC2)CC3)cn1 [Compound 4.23, 4-((3-(2-Cyclopropyloxazol-4-yl)phenyl)((4-(6-(dimethylamino)pyridin-3-yl)bicyclo[2.2.2]octan-1-yl)methyl)carbamoyl)cyclohexyl trans-(2-hydroxyethyl)carbamate] | ≤ 250 nM
14 | COc1ccc([C@H]2CC[C@H](CN(c3cc(-c4coc(C5CC5)n4)ccn3)C(=O)[C@H]3CC[C@H](OC(=O)NCCO)CC3)CC2)nc1C [Compound 4.24, trans-4-((4-(2-Cyclopropyloxazol-4-yl)pyridine-2-yl)((trans-4-(5-methoxy-6-methylpyridin-2-yl)cyclohexyl)methyl)carbamoyl)cyclohexyl (2-hydroxyethyl)carbamate] | ≤ 250 nM
15 | COc1ccc([C@H]2CC[C@H](CN(c3cccc(-c4cnn(C5CC5)c4)c3)C(=O)[C@H]3CC[C@H](OC(=O)N4CC(O)C4)CC3)CC2)cc1C [Compound 4.25, trans-4-((3-(1-Cyclopropyl-1H-pyrazol-4-yl)phenyl)((trans-4-(4-methoxy-3-methylphenyl)cyclohexyl)methyl)carbamoyl)cyclohexyl 3-hydroxyazetidine-1-carboxylate] | ≤ 250 nM
16 | COc1ccc([C@H]2CC[C@H](CN(c3cccc(-c4cnn(C5CC5)c4)c3)C(=O)[C@H]3CC[C@H](OC(=O)N4CC(O)C4)CC3)CC2)nc1C [Compound 4.26, trans-4-((3-(1-Cyclopropyl-1H-pyrazol-4-yl)phenyl)((trans-4-(5-methoxy-6-methylpyridin-2-yl)cyclohexyl)methyl)carbamoyl)cyclohexyl 3-hydroxyazetidine-1-carboxylate] | ≤ 250 nM
17 | COc1ccc([C@H]2CC[C@H](CN(c3cc(-c4cnn(C5CC5)c4)ccn3)C(=O)[C@H]3CC[C@H](OC(=O)N4CC(O)C4)CC3)CC2)cc1C [Compound 4.27, trans-4-((4-(1-Cyclopropyl-1H-pyrazol-4-yl)pyridin-2-yl)((trans-4-(4-methoxy-3-methylphenyl)cyclohexyl)methyl)carbamoyl)cyclohexyl 3-hydroxyazetidine-1-carboxylate] | ≤ 250 nM
18 | COc1ccc([C@H]2CC[C@H](CN(c3cccc(-c4cnn(C5CC5)c4)c3)C(=O)[C@H]3CC[C@H](OC(=O)N4CC(CSC)C4)CC3)CC2)cc1C [Compound 4.28, trans-4-((3-(1-Cyclopropyl-1H-pyrazol-4-yl)phenyl)((trans-4-(4-methoxy-3-methylphenyl)cyclohexyl)methyl)carbamoyl)cyclohexyl 3-((methylthio)methyl)azetidine-1-carboxylate] | ≤ 250 nM
